Laboratory results: patent US20250122219A1 (priority 2023, published 2025)

Legend:
[1] = Cytotoxicity assay in MT-4 cells; assay type: cell-based; details: human; uninfected MT-4 cells, 5 days incubation, Cell Titer Glo; read-out: MT4 CC50
Description: (§1) Compounds were tested in a high-throughput 384-well assay format for their ability to inhibit the replication of HIV-1 (IIIB) in MT-4 cells. Compounds were serially diluted (1.3) in DMSO on 384-well polypropylene plates and further diluted 200-fold into complete RPMI media (10% FBS, 1% P/S) using the Biotek Micro Flow and Labcyte ECHO acoustic dispenser. Each plate contained up to 8 test compounds, with negative (No Drug Control) and 5 μM AZT positive controls. MT-4 cells were pre-infected with 10 μL of either RPMI (mock-infected) or a fresh 1:250 dilution of HIV-1 IIIB concentrated virus stock. Infected and uninfected MT-4 cells were further diluted in complete RPMI media and added to each plate using a Micro Flow dispenser. After 5 days incubation in a humidified and temperature controlled incubator (37° C.), Cell Titer Glo (Promega) was added to the assay plates and chemiluminescence read using an Envision plate-reader.
Assays were performed as above except uninfected MT-4 cells were added to each well containing test compound. In addition, […] puromycin was added to the last column of each assay plate to assess a base level of cytotoxicity.

[2] = tested on: HIV-1 (IIIB); assay: Antiviral assay in MT-4 cells; assay type: cell-based; details: Human immunodeficiency virus 1, MT4, 120 h; HIV-1 IIIB in MT-4 cells, 5 days incubation, Cell Titer Glo; read-out: MT4 EC50
Description: as §1

| EC50 [2] | Compound | CC50 at 5 days [1] |
| --- | --- | --- |
| 0.00029 µM | CCCCCCOC(=O)OCOc1c2n(cc(C(=O)NCc3ccc(F)cc3F)c1=O)[C@@H]1CN(C2=O)[C@@H](C)CC[C@]12CC(OC)=NO2 [Example 182, (((3′S,5S,7′R)-10′-((2,4-difluorobenzyl)carbamoyl)-3-methoxy-3′-methyl-1′,11′-dioxo-1′,4′,5′,11′-tetrahydro-3′H,4H,7′H-spiro[isoxazole-5,6′-[2,7]methanopyrido[1,2-a][1,4]diazonin]-12′-yl)oxy)methyl hexyl carbonate] | 47.9 µM |
| 0.00144 µM | COC(=O)N[C@H](C(=O)Oc1c2n(cc(C(=O)NCc3ccc(F)cc3F)c1=O)[C@@H]1CN(C2=O)[C@@H](C)CC[C@]12CC(C)=NO2)C(C)C [Example 81] | 18.1 µM |
| 0.0069 µM | CCCCCCCCCCCCCCCCOC(=O)Oc1c2n(cc(C(=O)NCc3ccc(F)cc3F)c1=O)[C@@H]1CN(C2=O)[C@@H](C)CC[C@]12CC(C)=NO2 [Example 144, (3′S,5S,7′R)-10′-((2,4-difluorobenzyl)carbamoyl)-3,3′-dimethyl-1′,11′-dioxo-1′,4′,5′,11′-tetrahydro-3′H,4H,7′H-spiro[isoxazole-5,6′-[2,7]methanopyrido[1,2-a][1,4]diazonin]-12′-yl hexadecyl carbonate] | ≥ 50 µM |
| 0.00756 µM | CCCCCCCCCCCCCCCCCCOC(=O)Oc1c2n(cc(C(=O)NCc3ccc(F)cc3F)c1=O)[C@@H]1CN(C2=O)[C@@H](C)CC[C@]12CC(C)=NO2 [Example 146, (3′S,5S,7′R)-10′-((2,4-difluorobenzyl)carbamoyl)-3,3′-dimethyl-1′,11′-dioxo-1′,4′,5′,11′-tetrahydro-3′H,4H,7′H-spiro[isoxazole-5,6′-[2,7]methanopyrido[1,2-a][1,4]diazonin]-12′-yl octadecyl carbonate] | ≥ 50 µM |
| 0.00159 µM | COC1=NO[C@@]2(CC[C@H](C)N3C[C@H]2n2cc(C(=O)NCc4ccc(F)cc4F)c(=O)c(OC(=O)OCCCCCCCC(C)C)c2C3=O)C1 [Example 161, (3′S,5S,7′R)-10′-((2,4-difluorobenzyl)carbamoyl)-3-methoxy-3′-methyl-1′,11′-dioxo-1′,4′,5′,11′-tetrahydro-3′H,4H,7′H-spiro[isoxazole-5,6′-[2,7]methanopyrido[1,2-a][1,4]diazonin]-12′-yl (8-methylnonyl) carbonate] | 40.6 µM |
| 0.00264 µM | CCCCCCCCCCCCOC(=O)Oc1c2n(cc(C(=O)NCc3ccc(F)cc3F)c1=O)[C@@H]1CN(C2=O)[C@@H](C)CC[C@]12CC(C)=NO2 [Example 141, (3′S,5S,7′R)-10′-((2,4-difluorobenzyl)carbamoyl)-3,3′-dimethyl-1′,11′-dioxo-1′,4′,5′,11′-tetrahydro-3′H,4H,7′H-spiro[isoxazole-5,6′-[2,7]methanopyrido[1,2-a][1,4]diazonin]-12′-yl dodecyl carbonate] | 16.5 µM |

The next lines start with the compound.

| Compound | EC50 [2] | CC50 at 5 days [1] |
| --- | --- | --- |
| CCCCCCC(=O)Oc1c2n(cc(C(=O)NCc3ccc(F)cc3F)c1=O)[C@@H]1CN(C2=O)[C@@H](C)CC[C@]12CC(C)=NO2 [Example 39, (3′S,5S,7′R)-10′-((2,4-difluorobenzyl)carbamoyl)-3,3′-dimethyl-1′,11′-dioxo-1′,4′,5′,11′-tetrahydro-3′H,4H,7′H-spiro[isoxazole-5,6′-[2,7]methanopyrido[1,2-a][1,4]diazonin]-12′-yl heptanoate] | 0.00075 µM | 23.7 µM |
| COC1=NO[C@@]2(CC[C@H](C)N3C[C@H]2n2cc(C(=O)NCc4ccc(F)cc4F)c(=O)c(OC(=O)CCCC(C)C)c2C3=O)C1 [Example 60, (3′S,5S,7′R)-10′-((2,4-difluorobenzyl)carbamoyl)-3-methoxy-3′-methyl-1′,11′-dioxo-1′,4′,5′,11′-tetrahydro-3′H,4H,7′H-spiro[isoxazole-5,6′-[2,7]methanopyrido[1,2-a][1,4]diazonin]-12′-yl 5-methylhexanoate] | 0.000539 µM | 21 µM |
| COCCOCCOC(=O)OCOc1c2n(cc(C(=O)NCc3ccc(F)cc3F)c1=O)[C@@H]1CN(C2=O)[C@@H](C)CC[C@]12CC(C)=NO2 [Example 23, (((3′S,5S,7′R)-10′-((2,4-difluorobenzyl)carbamoyl)-3,3′-dimethyl-1′,11′-dioxo-1′,4′,5′,11′-tetrahydro-3′H,4H,7′H-spiro[isoxazole-5,6′-[2,7]methanopyrido[1,2-a][1,4]diazonin]-12′-yl)oxy)methyl (2-(2-methoxyethoxy)ethyl) carbonate] | 0.0028 µM | 27.3 µM |
| CCCCCCCCCCCCCCOC(=O)OCOc1c2n(cc(C(=O)NCc3ccc(F)cc3F)c1=O)[C@@H]1CN(C2=O)[C@@H](C)CC[C@]12CC(OC)=NO2 [Example 193, (((3′S,5S,7′R)-10′-((2,4-difluorobenzyl)carbamoyl)-3-methoxy-3′-methyl-1′,11′-dioxo-1′,4′,5′,11′-tetrahydro-3′H,4H,7′H-spiro[isoxazole-5,6′-[2,7]methanopyrido[1,2-a][1,4]diazonin]-12′-yl)oxy)methyl tetradecyl carbonate] |  | ≥ 50 µM |
| CC1=NO[C@@]2(CC[C@H](C)N3C[C@H]2n2cc(C(=O)NCc4ccc(F)cc4F)c(=O)c(OCOC(=O)OCCCCCCC(C)C)c2C3=O)C1 [Example 209, (((3′S,5S,7′R)-10′-((2,4-difluorobenzyl)carbamoyl)-3,3′-dimethyl-1′,11′-dioxo-1′,4′,5′,11′-tetrahydro-3′H,4H,7′H-spiro[isoxazole-5,6′-[2,7]methanopyrido[1,2-a][1,4]diazonin]-12′-yl)oxy)methyl (7-methyloctyl) carbonate] |  | ≥ 50 µM |
| CC1=NO[C@@]2(CC[C@H](C)N3C[C@H]2n2cc(C(=O)NCc4ccc(F)cc4F)c(=O)c(OCOC(=O)C(C)C)c2C3=O)C1 [Example 109, (((3′S,5S,7′R)-10′-((2,4-difluorobenzyl)carbamoyl)-3,3′-dimethyl-1′,11′-dioxo-1′,4′,5′,11′-tetrahydro-3′H,4H,7′H-spiro[isoxazole-5,6′-[2,7]methanopyrido[1,2-a][1,4]diazonin]-12′-yl)oxy)methyl isobutyrate] |  | 15.5 µM |
| COC1=NO[C@@]2(CC[C@H](C)N3C[C@H]2n2cc(C(=O)NCc4ccc(F)cc4F)c(=O)c(OC(=O)C(C)C)c2C3=O)C1 [Example 48, (3′S,5S,7′R)-10′-((2,4-difluorobenzyl)carbamoyl)-3-methoxy-3′-methyl-1′,11′-dioxo-1′,4′,5′,11′-tetrahydro-3′H,4H,7′H-spiro[isoxazole-5,6′-[2,7]methanopyrido[1,2-a][1,4]diazonin]-12′-yl isobutyrate] |  | 22.4 µM |
| CCCOC(=O)Oc1c2n(cc(C(=O)NCc3ccc(F)cc3F)c1=O)[C@@H]1CN(C2=O)[C@@H](C)CC[C@]12CC(C)=NO2 [Example 125, (3′S,5S,7′R)-10′-((2,4-difluorobenzyl)carbamoyl)-3,3′-dimethyl-1′,11′-dioxo-1′,4′,5′,11′-tetrahydro-3′H,4H,7′H-spiro[isoxazole-5,6′-[2,7]methanopyrido[1,2-a][1,4]diazonin]-12′-yl propyl carbonate] |  | 18.5 µM |
